# According to the supplement of paper PMC10307832:
# What was measured:
# Test in all cases: relative viability (nuclei count vs DMSO), 5 days (fraction); higher = more cells survive
# CUDC-101 + Foretinib = compound: C#Cc1cccc(Nc2ncnc3cc(OC)c(OCCCCCCC(=O)NO)cc23)c1 [CUDC-101] + COc1cc2c(Oc3ccc(NC(=O)C4(C(=O)Nc5ccc(F)cc5)CC4)cc3F)ccnc2cc1OCCCN1CCOCC1 [Foretinib] (partner 0.25 µM)
# Summary of the method: (§1)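 A single step with final 0.05% Triton X-100, 1% formaldehyde and 1 ug/ml Hoechst fixed the cells and stained nuclei 5 days after treatment. Lung cancer cell lines in 1536-well plates had been treated by pin tool the day after seeding with one drug alone or a fixed anchor-drug dose plus five library-drug doses (not always all listed) in √10 steps, and nuclei were counted on 4× images. Relative viability is the ratio of nuclei in treated wells to nuclei in vehicle wells, taken as the median of duplicate plates.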
# CUDC-101 + Crizotinib = compound: C#Cc1cccc(Nc2ncnc3cc(OC)c(OCCCCCCC(=O)NO)cc23)c1 [CUDC-101] + C[C@@H](Oc1cc(-c2cnn(C3CCNCC3)c2)cnc1N)c1c(Cl)ccc(F)c1Cl [Crizotinib] (partner 1 µM)
# Summary of the method: as §1
# NVP-TAE684 + Pemetrexed = compound: COc1cc(N2CCC(N3CCN(C)CC3)CC2)ccc1Nc1ncc(Cl)c(Nc2ccccc2S(=O)(=O)C(C)C)n1 [NVP-TAE684] + Nc1nc2[nH]cc(CCc3ccc(C(=O)N[C@@H](CCC(=O)O)C(=O)O)cc3)c2c(=O)[nH]1 [Pemetrexed] (partner 0.2 µM)
# Summary of the method: as §1
# Vandetanib + OSI-027 = compound: COc1cc2/c(=N/c3ccc(Br)cc3F)nc[nH]c2cc1OCC1CCN(C)CC1 [Vandetanib] + COc1cccc2cc(-c3nc([C@H]4CC[C@H](C(=O)O)CC4)n4ncnc(N)c34)[nH]c12 [OSI-027] (partner 0.5 µM)
# Summary of the method: as §1
cell line,measurement,setting,value
UMC-11,relative viability,CUDC-101 + Foretinib; first compound 0.01 µM,1.06
same,relative viability,CUDC-101 + Foretinib; first compound 0.03162 µM,1.03
same,relative viability,CUDC-101 + Foretinib; first compound 0.1 µM,0.945
same,relative viability,CUDC-101 + Foretinib; first compound 0.3162 µM,0.317
same,relative viability,CUDC-101 + Foretinib; first compound 1 µM,0.106
same,relative viability,CUDC-101 + Crizotinib; first compound 0.01 µM,0.67
same,relative viability,CUDC-101 + Crizotinib; first compound 0.03162 µM,0.577
same,relative viability,CUDC-101 + Crizotinib; first compound 0.1 µM,0.404
same,relative viability,CUDC-101 + Crizotinib; first compound 0.3162 µM,0.215
same,relative viability,CUDC-101 + Crizotinib; first compound 1 µM,0.136
same,relative viability,NVP-TAE684 + Pemetrexed; first compound 0.2 µM,0.736
same,relative viability,NVP-TAE684 + Pemetrexed; first compound 0.6325 µM,0.735
same,relative viability,NVP-TAE684 + Pemetrexed; first compound 2 µM,0.347
same,relative viability,Vandetanib + OSI-027; first compound 0.02 µM,0.472
same,relative viability,Vandetanib + OSI-027; first compound 0.06325 µM,0.416
same,relative viability,Vandetanib + OSI-027; first compound 0.2 µM,0.45
same,relative viability,Vandetanib + OSI-027; first compound 0.6325 µM,0.443
same,relative viability,Vandetanib + OSI-027; first compound 2 µM,0.467
